Source: patent US20240009436A1, “LOCALIZED […] OF […] […] AGENTS USING FOCUSED ULTRASOUND” (priority 2020, published 2024)

Columns and labels:
[1] = test system: vS1-vM1 circuit (wEPs in vM1); test: Whisker-evoked potentials (wEPs) in vM1 after delivery to vS1 in anesthetized rats; type: in vivo, rat
Method: The AU-FUS sequence [AU-FUS (in vivo); see Table 1] was tested in vivo by manipulating a specific cortical network without opening the BBB. Rat vibrissa motor cortex (vM1) receives whisker sensory information (˜80%) through projections from vibrissa sensory cortex (vS1, “Barrel cortex”). When rodent whiskers are mechanically deflected, evoked activity propagates from brainstem via thalamus to vS1, and then to vM1. During simultaneous recordings the peaks of whisker-evoked potentials (wEPs) were observed first in vS1 and ˜3.0 ms later in vM1. It was tested whether inhibiting vS1 by the novel technique would suppress wEPs in vM1 in anesthetized rats. The FUS transducer was positioned above the intact skull and focused on vS1. Using a multielectrode array, the wEPs and the whisker-evoked multi-unit activity in vM1 were monitored online. In parallel, muscimol-loaded UC-carriers were continuously (i.v.) injected. The AU-FUS sequence was applied repeatedly on vS1 to aggregate the UC-carriers and to uncage muscimol. Muscimol is an agonist of ionotropic GABAA receptors, the major receptor responsible for fast inhibitory transmission in the brain, which […] the BBB.
The animal was anesthetized, a small craniotomy was performed over vM1 (TZ region) or V1 for inserting a recording probe 140, and a FUS transducer 136 was positioned on the intact skull above vS1 with the help of stereotaxic coordinates and coupled with sterile ultrasound gel and water collimator.
Muscimol-loaded UC-carriers were injected intravenously through the tail vein using an infusion pump 110. vM1 and V1 recordings were performed on separate cohorts.
Whiskers were cut to around 15 mm length. The 8-12 largest whiskers were inserted into a glass capillary tube which was attached to a piezo actuator (T223-H4CL-503X, Piezo Systems). The piezo actuator was shielded with a custom-made copper cover. The whiskers were deflected with 120 Hz cosine pulses (292 mm/s velocity, displaced 2.34 mm in 8 ms) which were generated in LabView (National Instruments) and converted into an analog signal (DAC NI, USB-6211) which then drove the piezo actuator. Stimulus presentation was synchronized with the electrophysiological recordings with a TTL signal at stimulus onset. Whiskers were continuously stimulated at a repetition rate of 0.3 Hz.
All electrophysiological data were recorded with a RHD2000 system (Intan Technologies) with 30 kS/s sampling rate. All stereotaxic coordinates were determined with respect to bregma. A 32 channel Neuronexus probe (A2x16-10 mm-100-500-177-A32, 15 or 50 μm thick) attached to a motorized 3D arm (StereoDrive-960HD, Neurostar), fixed outside of the stereotaxic frame, was inserted into the vM1 (Coordinates AP: 1-2 mm, ML: 0.5-1 mm, depending on the vasculature, DV: 1.5-2 mm from pia) at 50° to the coronal plane. The probe was initially inserted ˜250-500 μm below the cortical surface. The FUS transducer was integrated with an acoustic collimator which was filled with degassed and deionized water and contained a polystyrene film (McMaster-Carr) at the end. The collimator's shape was designed according to the FUS transducer's geometry so that it would not interfere with the FUS beam. This assembly was stereotaxically positioned such that the FUS focal volume was targeted to vS1 (Coordinates AP: −2.3 mm, ML: 6 mm, DV: 3.3 mm from skull surface) at a 30° angle with respect to the sagittal plane such that the focal volume of FUS beam targeted cortical layers of vS1. […]

brain = details: cited from earlier work
[2] = test system: VEPs in primary visual cortex (V1); test: Visually evoked potentials (VEPs) in V1 after delivery to vS1; type: in vivo, rat; details: muscimol delivered to vS1 using AU-FUS
Method: To rule out that the observed modulation of vM1 could be due to spreading of muscimol from vS1, signals were recorded from a cortical area close to vS1 but without significant connectivity with vS1: Muscimol was delivered to vS1 using AU-FUS, and the visually evoked potentials (VEPs) were measured from primary visual cortex (V1). […] V1 and vM1 recordings were done on separate cohorts. The same ultrasound parameters were used for both vS1-vM1 and vS1-V1 paradigms.
The protocol used for vS1-V1 was the same as vS1-vM1 paradigm with the following exceptions: FUS sonication coordinates were changed to AP: −2.3 mm, ML: 6.5 mm, DV: 3.3 mm from skull surface and FUS angle was changed from 30° to 34° to create space for electrode insertion to V1. A more lateral region of vS1 was sonicated to achieve better coupling with skull with the new angling of the FUS transducer. Electrode insertion coordinates were changed for V1 recording to AP: −5.5-6.0 mm, ML: 3.2-3.5 mm, DV: 1.6-2.0 mm to ensure that recording is done from cortical layers of V1. […] Instead of wEPs, VEPs were recorded by visual stimulation. […]
All electrophysiological data analysis was done in Python, version 3.6, using custom scripts. […] For wEP and VEP analysis, moving averages were calculated for a window step size of 180 whisker deflections/visual stimuli (moving step size is 1 deflection/visual stimulus). […]

[3] = rat barrel cortex; cited from earlier work
[4] = i.v., without AU-FUS or UC-carriers

## NCc1cc(=O)[nH]o1 [muscimol]
[1]; free muscimol (250 ng) and vehicle-loaded UC-carriers with AU-FUS (control)
  change of wEPs in vM1, baseline vs post-treatment: No statistically significant changes
[1]; [4]
  systemic muscimol needed for comparable reduction of wEPs: at least 260 μg
  systemic muscimol needed for comparable reduction of wEPs, relative to measured payload of the UC-carriers: at least 1300 times
[1]; muscimol uncaged in vS1 by AU-FUS
  time of maximum inhibition in vM1: ≤ 20 min
[1]; systemic injection of free muscimol (250 ng) with AU-FUS (control)
  change of wEPs in vM1, baseline vs post-treatment: No statistically significant changes
brain
  amount of systemic muscimol required for brain inactivation: ~1.6 mg/kg
[2]
  change of VEPs recorded from V1: No statistically significant changes
[3]
  diffusion coefficient D: 8.7×10^−6 cm^2 s^−1
